Assay results: patent US12419307B2, “Mixtures comprising indazole pesticides” (FMC Corporation, priority 2019, dated 2025)
Where two headings read alike, the source gives them in different places.

Experiments:
Format in all cases: in vivo
[1] = system: silverleaf whitefly (Bemisia argentifolii Bellows and Perring); test: Test A: silverleaf whitefly control on cotton or soybean plants, spray, insect mortality after 13 days; details: Bemisia argentifolii, applied alone, read-out: % Mortality (obs)
Procedure, shortened: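 Cotton (12–14-day) or soybean (5–7-day) plants carrying whitefly eggs were sprayed with compound in 10% acetone/water with non-ionic surfactant. Plants were held 13 days at 28°C and 50–70% RH; mortality was averaged over three replicates. Mixture enhancement was judged against Colby-expected values.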

[2] = system: cotton melon aphid (Aphis gossypii Glover); test: Test D: cotton melon aphid control on okra plants, insect mortality after 6 days; details: Aphis gossypii, read-out: % Mortality (obs)
Procedure, shortened: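 Okra plants (6–7 days old) pre-infested with 30–40 aphids by cut-leaf transfer were sprayed, three replicates, then held 6 days at 19-21° C and 50-70% RH before mortality scoring. Mixture enhancement was judged against Colby-expected % mortality.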

[3] = system: diamondback moth (Plutella xylostella L.); test: Test E: diamondback moth control on mustard plants, contact and/or systemic, plant damage rating after 6 days
Procedure, shortened: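 Sprayed 10- to 12-day-old mustard plants (3 replicates), dried 1 h, infested with 30-50 neonate larvae, then held 6 days at 24-25 °C, 70% RH. Plant damage visually rated 0 (undamaged) to 10 (dead); mixture effects judged by Colby's equation.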

[4] = system: fall armyworm (Spodoptera frugiperda (J. E. Smith)); test: Test E: fall armyworm control on corn plants, plant damage rating and mortality after 6 days; details: Spodoptera frugiperda, 144 h, Table 6e, read-out: Plant Protection (obs)

**Q.** Which results are given for `C[S+]([O-])CC(C)(C)NC(=O)c1ccc(F)c2nn(-c3cccnc3)cc12` (stereo not shown) [Cpd 2, N-[1,1-dimethyl-2-(methylsulfinyl)ethyl]-7-fluoro-2-(3-pyridinyl)-2H-indazole-4-carboxamide]?
**A.** mortality at 50 ppm ([1]; 2 h, Table 2h): 0%; mortality at 250 ppm ([1]; 2 h, Table 2h): 2.9%; mortality at 50 ppm ([1]; 48 h, Table 2d): 7.5%; mortality at 250 ppm ([1]; 48 h, Table 2d): 28%; mortality at 50 ppm ([1]; Table 2a): 10.9%; mortality at 250 ppm ([1]; Table 2a): 74.5%; mortality at 50 ppm ([1]; Table 2b): 80%; mortality at 250 ppm ([1]; Table 2b): 53.3%; mortality at 50 ppm ([1]; Table 2c): 11.8%; mortality at 250 ppm ([1]; Table 2c): 75.4%; mortality at 50 ppm ([1]; Table 2e): 17.8%; mortality at 250 ppm ([1]; Table 2e): 90.2%; mortality at 50 ppm ([1]; Table 2f): 15.7%; mortality at 250 ppm ([1]; Table 2f): 90.6%; mortality at 50 ppm ([1]; Table 2g): 31.1%; mortality at 250 ppm ([1]; Table 2g): 91.7%; mortality at 0.05 ppm ([2]; 5 h, Table 5h): 43.9%; mortality at 0.18 ppm ([2]; 5 h, Table 5h): 57.5%; mortality at 0.05 ppm ([2]; 120 h, Table 5d): 40.1%; mortality at 0.18 ppm ([2]; 120 h, Table 5d): 31.4%; mortality at 0.05 ppm ([2]; Table 5a): 40.1%; mortality at 0.18 ppm ([2]; Table 5a): 31.4%; mortality at 0.05 ppm ([2]; Table 5b): 40.1%; mortality at 0.18 ppm ([2]; Table 5b): 31.4%; mortality at 0.05 ppm ([2]; Table 5c): 0%; mortality at 0.18 ppm ([2]; Table 5c): 80%; mortality at 0.05 ppm ([2]; Table 5e): 16.3%; mortality at 0.18 ppm ([2]; Table 5e): 37%; mortality at 0.05 ppm ([2]; Table 5f): 17.1%; mortality at 0.18 ppm ([2]; Table 5f): 37.2%; mortality at 0.05 ppm ([2]; Table 5g): 23.4%; mortality at 0.18 ppm ([2]; Table 5g): 38.3%; Plant Protection (obs) ([3]; Table 6a, 50 ppm): 0.0; Plant Protection (obs) ([3]; Table 6a, 250 ppm): 0.0; Plant Protection (obs) ([3]; Table 6b, 50 ppm): 0.0; Plant Protection (obs) ([3]; Table 6b, 250 ppm): 0.0; pest or weed control at 50 ppm [4]: 0%; pest or weed control at 250 ppm [4]: 0%

**Q.** For `CC(C)(CS(C)(=O)=O)NC(=O)c1ccc(F)c2nn(-c3cccnc3)cc12` [Cpd 3, N-[1,1-dimethyl-2-(methylsulfonyl)ethyl]-7-fluoro-2-(3-pyridinyl)-2H-indazole-4-carboxamide], which mortality at 50 ppm ([1]; 2 h, Table 2h) is on record?
**A.** The mortality at 50 ppm was 0%.

**Q.** And the mortality at 250 ppm ([1]; 2 h, Table 2h)?
**A.** The mortality at 250 ppm was 0%.

**Q.** What about the mortality at 50 ppm ([1]; 48 h, Table 2d) of the same molecule?
**A.** Its mortality at 50 ppm is 1.2%.

**Q.** And the mortality at 250 ppm ([1]; 48 h, Table 2d)?
**A.** The mortality at 250 ppm was 1.1%.

**Q.** What about the mortality at 50 ppm ([1]; Table 2a) of the same molecule?
**A.** Its mortality at 50 ppm is 25%.

**Q.** And the mortality at 250 ppm ([1]; Table 2a)?
**A.** Its mortality at 250 ppm is 1.6%.

**Q.** And the mortality at 50 ppm ([1]; Table 2b)?
**A.** The mortality at 50 ppm was 0%.

**Q.** And the mortality at 250 ppm ([1]; Table 2b)?
**A.** Its mortality at 250 ppm is 0%.

**Q.** And the mortality at 50 ppm ([1]; Table 2c)?
**A.** Its mortality at 50 ppm is 16.1%.

**Q.** And the mortality at 250 ppm ([1]; Table 2c)?
**A.** The mortality at 250 ppm was 26.7%.

**Q.** And the mortality at 50 ppm ([1]; Table 2e)?
**A.** The mortality at 50 ppm was 1.3%.

**Q.** And the mortality at 250 ppm ([1]; Table 2e)?
**A.** The mortality at 250 ppm was 1.2%.

**Q.** What about the mortality at 50 ppm ([1]; Table 2f) of the same molecule?
**A.** Its mortality at 50 ppm is 21.2%.

**Q.** And the mortality at 250 ppm ([1]; Table 2f)?
**A.** The mortality at 250 ppm was 25.3%.

**Q.** What about the mortality at 50 ppm ([1]; Table 2g) of the same molecule?
**A.** Its mortality at 50 ppm is 18%.

**Q.** And the mortality at 250 ppm ([1]; Table 2g)?
**A.** The mortality at 250 ppm was 27.7%.

**Q.** What about the mortality at 0.02 ppm ([2]; 5 h, Table 5h) of the same molecule?
**A.** Its mortality at 0.02 ppm is 37.4%.

**Q.** What about the mortality at 0.08 ppm ([2]; 5 h, Table 5h) of the same molecule?
**A.** Its mortality at 0.08 ppm is 43.5%.

**Q.** And the mortality at 0.02 ppm ([2]; 120 h, Table 5d)?
**A.** The mortality at 0.02 ppm was 20%.

**Q.** What about the mortality at 0.08 ppm ([2]; 120 h, Table 5d) of the same molecule?
**A.** Its mortality at 0.08 ppm is 43.2%.

**Q.** What about the mortality at 0.02 ppm ([2]; Table 5a) of the same molecule?
**A.** Its mortality at 0.02 ppm is 20%.

**Q.** And the mortality at 0.08 ppm ([2]; Table 5a)?
**A.** The mortality at 0.08 ppm was 43.2%.

**Q.** What about the mortality at 0.02 ppm ([2]; Table 5b) of the same molecule?
**A.** The mortality at 0.02 ppm was 20%.

**Q.** What about the mortality at 0.08 ppm ([2]; Table 5b) of the same molecule?
**A.** The mortality at 0.08 ppm was 43.2%.

**Q.** And the mortality at 0.02 ppm ([2]; Table 5c)?
**A.** Its mortality at 0.02 ppm is 0%.

**Q.** What about the mortality at 0.08 ppm ([2]; Table 5c) of the same molecule?
**A.** The mortality at 0.08 ppm was 20%.

**Q.** And the mortality at 0.02 ppm ([2]; Table 5e)?
**A.** The mortality at 0.02 ppm was 19.9%.

**Q.** And the mortality at 0.08 ppm ([2]; Table 5e)?
**A.** Its mortality at 0.08 ppm is 31.1%.

**Q.** And the mortality at 0.02 ppm ([2]; Table 5f)?
**A.** The mortality at 0.02 ppm was 17.6%.

**Q.** And the mortality at 0.08 ppm ([2]; Table 5f)?
**A.** The mortality at 0.08 ppm was 39%.

**Q.** And the mortality at 0.02 ppm ([2]; Table 5g)?
**A.** The mortality at 0.02 ppm was 15.8%.

**Q.** And the mortality at 0.08 ppm ([2]; Table 5g)?
**A.** The mortality at 0.08 ppm was 30.6%.

**Q.** And the “Plant Protection (obs)” value ([3]; Table 6a, 50 ppm)?
**A.** The value was 0.0.

**Q.** And the “Plant Protection (obs)” value ([3]; Table 6a, 250 ppm)?
**A.** Its value is 0.0.

**Q.** What about the “Plant Protection (obs)” value ([3]; Table 6b, 50 ppm) of the same molecule?
**A.** The value was 0.0.

**Q.** And the “Plant Protection (obs)” value ([3]; Table 6b, 250 ppm)?
**A.** Its value is 0.0.

**Q.** What about the pest or weed control at 50 ppm [4] of the same molecule?
**A.** The pest or weed control at 50 ppm was 0%.

**Q.** And the pest or weed control at 250 ppm [4]?
**A.** Its pest or weed control at 250 ppm is 0%.
